Measured values taken from PubChem BioAssay (NCI).
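How tested: cells in 96-well plates exposed to compound for 48 hours at five concentrations. At the TGI there is no net growth.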

Key:
Assay in all cases: inhibition of tumour cell growth, NCI panel, 48 h
COLO 205 colon = test system: COLO 205 colon
EKVX NSCLC = test system: EKVX NSCLC
HCC-2998 colon = test system: HCC-2998 colon
KM12 colon = test system: KM12 colon
M14 melanoma = test system: M14 melanoma
MALME-3M melanoma = test system: MALME-3M melanoma
NCI-H226 lung = test system: NCI-H226 lung
OVCAR-5 ovarian = test system: OVCAR-5 ovarian
OVCAR-8 ovarian = test system: OVCAR-8 ovarian
PC-3 prostate = test system: PC-3 prostate
SF-295 CNS = test system: SF-295 CNS
SF-539 CNS = test system: SF-539 CNS
SK-MEL-2 melanoma = test system: SK-MEL-2 melanoma
SK-MEL-28 melanoma = test system: SK-MEL-28 melanoma
T-47D breast = test system: T-47D breast
ACHN renal = test system: ACHN renal
SNB-19 CNS = test system: SNB-19 CNS

Compound | TGI (COLO 205 colon) [µM] | TGI (EKVX NSCLC) [µM] | TGI (HCC-2998 colon) [µM] | TGI (KM12 colon) [µM] | TGI (M14 melanoma) [µM] | TGI (MALME-3M melanoma) [µM] | TGI (NCI-H226 lung) [µM] | TGI (OVCAR-5 ovarian) [µM] | TGI (OVCAR-8 ovarian) [µM] | TGI (PC-3 prostate) [µM] | TGI (SF-295 CNS) [µM] | TGI (SF-539 CNS) [µM] | TGI (SK-MEL-2 melanoma) [µM] | TGI (SK-MEL-28 melanoma) [µM] | TGI (T-47D breast) [µM] | TGI (ACHN renal) [µM] | TGI (SNB-19 CNS) [µM]
CCOC(=O)COc1cc(-c2ccccc2)nc2cc(F)ccc12 | > 100 | > 100 | > 100 | > 100 | > 100 | > 100 | > 100 | > 100 | > 100 | > 100 | > 100 | > 100 | > 100 | > 100 | > 100 |  | 
O=C(/C=C/c1ccc(O)c(O)c1)O[C@H]1CCCC[C@@H]1OC(=O)/C=C/c1ccc(O)c(O)c1 | 56.2 | 53.8 | 33.7 | 73.3 | 77.9 | 32.6 |  | 33.9 | 57.1 | > 100 | 33.3 | > 100 | 84.3 | 44.1 | 98.8 | 38.3 | 73.8
O=c1[nH]nc(Cc2ccc(Cl)cc2)n1CCO | > 100 | > 100 | > 100 | > 100 | > 100 | > 100 | > 100 | > 100 | > 100 | > 100 | > 100 | > 100 | > 100 | > 100 | > 100 | > 100 | > 100
Cc1ccc(C2SCc3nc4ccccc4n32)cc1 (stereo not given) | 3.45 | > 100 | > 100 | 20.6 | > 100 | 73.6 | 6.55 | > 100 | 30 | 21.2 | 7.17 | 5.47 | 5.56 | > 100 | > 100 | > 100 | > 100
COc1c(OC)c(OC)c2c(=O)c(OC)c(-c3ccc4c(c3)OCO4)oc2c1OC | > 100 | > 100 | > 100 | > 100 | > 100 | > 100 | > 100 | > 100 | > 100 | > 100 | > 100 | > 100 | > 100 | > 100 | > 100 | > 100 | > 100
N#Cc1n[nH]n(-c2ccccc2)c1=O | > 100 | > 100 | > 100 | > 100 | > 100 | > 100 | > 100 | > 100 | > 100 | > 100 | > 100 | > 100 | > 100 | > 100 | > 100 | > 100 | > 100
CC(=S)NC=C(C(N)=O)C(N)=O | > 100 | > 100 | > 100 | > 100 | > 100 | > 100 | > 100 | > 100 | > 100 | > 100 | > 100 | > 100 | > 100 | > 100 | > 100 | > 100 | 
